The nature of assay [1]: Experiment 1: administration of arginine (an HGH releaser) and DHEA to a human patient, fasting blood analysis. It is filed as in vivo. An excerpt: A human patient was placed on a standardized regimen of nutrient intake for two weeks to establish a baseline prior to ingesting any HGH releasing agents. The evening prior to blood analysis, the same evening meal was consumed (salmon, potato, white wine, vegetables, and Caesar salad). Upon establishing basal values for glucose, insulin, somatomedin C (a marker for growth hormone), DHEA-sulfate, serum lipids, and testosterone, a daily regimen of ingesting 15 grams of arginine just before bedtime was instituted. This regimen was maintained for one week, after which a new baseline was obtained. The evening following this new baseline measurement, DHEA was ingested at a dose of 180 mg (two 90 mg capsules taken simultaneously) at the same time as the arginine. This was continued for one week and the baseline levels of metabolites were rechecked. Finally, for the last week, the arginine dose was administered every other day or at 7.5 g/day while DHEA levels were maintained. Thus, the data points are as follows: • 1: Baseline—begin 15 gm/day administration of arginine; • 2: Day 7—begin 180 mg/day DHEA; • 3: Day 14—begin 15 gm arginine every other day or 7.5 g/day; and • 4: Day 21—end of experiment, no arginine administered the previous night.

The nature of assay [2]: Independent experiment: IGF-1 level after arginine ingestion. It is filed as in vivo. Conditions: two hours after arginine ingestion; basal 223 ng/ml. An excerpt:
This drop was sustained as long as arginine administration was continued. […] Others have also measured somatomedin C levels following arginine ingestion or infusion, and found them to be depressed despite good release of HGH. There is no explanation for this paradox, but it is not material to the fact that HGH is released by arginine and that released HGH does elevate insulin and that DHEA does block this insulin-elevating effect.

For assay [3] the following is noted: humans, arginine ingestion or infusion; cited from earlier work.
The conditions of assay [4]: cited from earlier work.
Assay [5] is described as follows: Experiment 2: administration of HGH and DHEA, blood metabolite levels. The format is in vivo, human. The protocol: As in the first experiment, a standard dietary regimen was followed the evening before each blood sample was collected. HGH administration was initiated one day after a baseline blood sample was drawn. HGH was injected subcutaneously at a dose of approximately 0.018 mg/kg/day, every other night, and was injected near midnight prior to blood collection the following morning. Blood was collected between 10:30 and 11:00 a.m. The second blood sample was taken on day 8, or just over 7 days after beginning HGH injections (4 injections in total to that time). After this second blood sample, a “wash out” period of two days was allowed prior to reinitiating injections according to the same schedule. On day 9, during the HGH “wash out” period, a priming dose of 200 mg of DHEA was taken in divided doses to prepare the patient for the HGH. The second round of injections was done simultaneously with the ingestion of two 100 mg capsules of DHEA, beginning on the evening of day 10. This regimen continued for a total of 4 HGH injections, culminating in the final injection on day 16 and blood sampling on day 17. Two hundred mg of DHEA were taken also on the nights between HGH injections, at the normal time. HGH injections were administered near midnight of the day stated.

Take `C[C@]12CC[C@H](O)CC1=CC[C@@H]1[C@@H]2CC[C@]2(C)C(=O)CC[C@@H]12` [DHEA, dehydroepiandrosterone]: the “insulin level at point 4” value in assay [1] (day 21, DHEA maintained, arginine every other day, none the night before) was “returned to basal levels”. The “fasting serum insulin, % of basal levels” value in assay [1] (point 3, day 14, 180 mg/day DHEA with continuing undiminished 15 g/day arginine) stood at 76%.
Regarding `N=C(N)NCCC[C@H](N)C(=O)O` [arginine], the “insulin determination after only 3 days of arginine ingestion” value in assay [1] (3 days of arginine, data not shown in FIG. 1) is reported as “normal insulin level”. In addition, the “somatomedin C (IGF-1) levels in response to oral arginine” value in assay [1] (FIG. 5, sustained as long as arginine was continued) is reported as “DROP”. The “circulating level of DHEA-sulfate, point 4 versus point 3” value in assay [1] (fall in arginine ingestion, no drop in DHEA ingestion) is “fell”. Further, the glucose concentration result in assay [1] (fasting serum, during introduction and tapering off of arginine) is listed as “no change”. In addition, the “fasting serum insulin rise in response to arginine ingestion” value in assay [1] (point 2, day 7, 15 g/day arginine at bedtime, no DHEA) is reported as approximately 50%. Also, in assay [1] (point 2 versus point 1, arginine only, no DHEA ingested), the “DHEA-sulfate, endogenous change” value is listed as “noticeable increase”. Also, the “IGF-1 level after arginine ingestion” value in assay [2] is 166 ng/mL. Further, in assay [3], the “time for insulin to fall back to baseline after arginine” value was 1 to 2 h and the “time to peak of insulin levels after arginine” value is not above 30 min.
On to Chromium picolinate, for which the “extension of the life span of animals” value in assay [4] is 50%.
For the compound “HGH: recombinant or natural human growth hormone”, the “insulin rise prior to DHEA ingestion” value in assay [5] (HGH approx. 0.018 mg/kg/day s.c. every other night, day 8) came to 57%. Further, in assay [5] (HGH only), the DHEA-sulfate change entry was “unaltered” and the “circulating DHEA levels, depression” value is on record as “a third”. For the same compound, the Insulin level in assay [5] (serum, by stage of experiment, baseline 6.6) worked out at 10.4 uU/ml. Besides, the IGF-1 level in assay [5] (serum, by stage of experiment, baseline 27.0) worked out at 35.5 µg/dL. The DHEA-sulfate level in assay [5] (serum, by stage of experiment, baseline 146) came to 146 µg/dL. Besides, the DHEA level in assay [5] (serum, by stage of experiment, baseline 360) was 240 ng/dL.

The values above are taken from patent US7166569B2, “Method for the prevention of transplant rejection” (priority 1994, dated 2007).
